Results from patent US10376475B2, “Method of use” (Dermavant Sciences GmbH, priority 2014, dated 2019).
Read-outs that look alike come from different tables or passages of the source.

Tests used:
[1] = system: human immortalized sebocytes; assay: Sebocyte lipogenesis assay (14C-acetate); type: cell-based; settings: 10, 3, 1, 0.3 and 0.1 μM
Experimental: Briefly, human immortalized sebocytes (tsSV40 and hTERT) were seeded and allowed to grow to confluence in Sebocyte Growth Medium. Upon confluence, cells were transferred to […] to initiate Large T antigen degradation. Two days later, cells were stimulated with Sebocyte Labeling Medium containing 1 μM T0901317 and vehicle (DMSO) or compound 1. […] Next day, the media was replaced with Sebocyte Labeling Medium containing 1 μM T0901317 and original treatments or vehicle plus 1 μM insulin. 2 ul of 14C-acetate was added per well and the plate incubated for 4 hours. After 2 hours of incubation, 10 ul of CTB reagent was added per well for normalization. Incubation was continued for the remaining 2 hours and plates were read at Ex. 560 Em.590 for CTB signal. Cells were then washed, trypsinized and transferred to glass vials for lipid extraction. The results are expressed as % lipid production relative to control (LXR+Insulin group).
FIG. 4, the data represent % inhibition relative to control (LXR+Insulin group). Data are represented as Mean±SEM. Data are from 3 replicates.

[2] = system: P. acnes; assay: MIC against P. acnes on supplemented Brucella blood agar (CLSI); type: cell-based, Propionibacterium acnes
Experimental: Bacterial strains utilized to evaluate this concept of antibacterial synergy were the clinical isolates P. acnes 6601, 6602, AN24, 100372, and reference strain ATCC6919. These were received from the internal culture GSK collection held by the Infectious Disease CEDD at the Upper Providence site. Bacteria inocula were prepared, and the determination of the minimal inhibitory concentration (MIC) were conducted on supplemented Brucella blood agar as described for the CLSI guideline method (Bhate, K. et al. Brit. J. Derm. 168:474-485, 2013). Briefly, diluted antibacterials were added to tempered molten agar and aseptically poured into petri dishes and allowed to solidify. Following 24-hours incubation in an anaerobic environment bacterial colonies were suspended and adjusted for turbidity equivalent to a 0.5 MacFarland standard. One-two microliters of inoculums were placed on each antibiotic containing agar plate and allowed to absorb for 30 min. Plates were then inverted and incubated anaerobically for 48-72 hours before observation for growth. The lowest drug concentration which inhibited bacterial growth was designated as the MIC.

[3] = system: IL-17A; assay: IL-17A protein secretion by peripheral blood CD4+ T cells cultured under Th17 polarizing conditions (Magpix); type: cell-based; settings: 5 days of culture, titrating doses
Experimental: To further understand the active dose range of compound 1-mediated suppression of Th17-associated cytokines, IL-17A protein secretion was examined in peripheral blood CD4+ T cells following 5 days of culture under Th17 polarizing conditions in the presence or absence of titrating doses of Compound 1 (FIG. 2). Supernatants were harvested at the end of the culture period and secreted protein was analyzed by Magpix (magnetic-based Luminex technology).

[4] = system: IL-17; assay: IL-17 secretion by pre-existing (differentiated) Th17 polarized cells after TCR stimulus
[5] = system: primary human keratinocytes; assay: Keratinocyte viability (annexin V / propidium iodide flow cytometry); type: cell-based; settings: 10 and 30 uM, 48 hours
Experimental: Keratinocyte hyperproliferation increases blockage and can promote comedome formation in acne. […] The ability of Compound 1 to induce apoptosis in primary keratinocytes may contribute to efficacy in acne patients.
Primary human keratinocytes were cultured in EpiLife medium containing HKGS growth supplement and seeded in tissue culture plates at 250,000 cells per plate. On the next day, the culture medium was removed and keratinocytes were then treated with culture medium containing vehicle control (DMSO) or increasing concentrations of Compound 1 (1, 10, 30 uM). After 48 hours of culture, keratinocytes were removed from tissue culture plates and cell viability was assessed by staining for apoptotic markers (annexin V and propidium iodide) using flow cytometry.

[6] = system: primary human cell types; assay: BioMAP Diversity Plus System profile comparison; settings: 148 phenotypic readouts, at one or more test concentration
[7] = system: IL-17A; type: cell-based
[8] = mouse ear edema; cited from earlier work

Row | Structure (SMILES) | lipogenesis relative to control (LXR+Insulin group) [1] | lipogenesis relative to control (LXR+Insulin group) ([1]; listed as compound 1) | MIC ([2]; Cutibacterium acnes, P. acnes reference strain ATCC6919, read-out: MIC) [µg/mL] | MIC ([2]; Cutibacterium acnes, all P. acnes strains tested, read-out: MIC) [µg/mL] | MIC ([2]; P. acnes strain 6601) [µg/mL] | MIC ([2]; P. acnes strain 6602) [µg/mL] | MIC ([2]; P. acnes strain 100372) [µg/mL] | MIC ([2]; P. acnes strain AN24) [µg/mL] | antibacterial activity against P. acnes ([2]; judgement based on MIC results) | IL-17A protein levels [3] | reduction of IL-17 levels relative to stimulus alone ([4]; 30 μM, 24 hours) | keratinocyte viability / cytotoxicity [5] | number of biomarkers modulated [6] | suppression of IL-17 secretion ([7]; 100 nM) | reduction of IL-17 ([7]; 10 μM) | IL-17A mRNA expression ([7]; normalized to PPIB, 5-day culture) | skin redness and thickness [8] | effect on IL-17 ([4]; 30 μM) | effect on IL-17 ([4]; lower concentrations (below 30 μM))
1 | CC(C)c1c(O)cc(/C=C/c2ccccc2)cc1O [Compound 1] | not active | trends towards increased lipogenesis | 128 | 128 | 128 | 128 | 128 | 128 | would not be considered to be active | suppressed by compound 1 in a dose-dependent manner | 80-95% | overtly cytotoxic | more than 25 | more than 60% | approximately 80% | inhibited IL-17A mRNA expression in parallel and at the same potency as secretion of IL-17 protein | dose dependent reduction in both skin redness and thickness |  | 
2 | Oc1ccc(C=Cc2cc(O)cc(O)c2)cc1 [Resveratrol] |  |  |  |  |  |  |  |  |  |  |  |  |  |  |  |  |  | partial inhibition | enhancement
